The compounds below were run against T1, p53 Y220C (Homo sapiens, UniProt P04637, Y220C) (assay: In vitro DNA binding activity assay (HTRF / TR-FRET): stabilization of p53 Y220C and increase of its DNA binding activity). Details: recombinant His-tagged p53 Y220C DNA binding domain (aa 94-312), biotin-labeled consensus DNA, incubated at 27° C. or 29° C. for 60 min.
T1 construct: The recombinant protein was a truncation mutant containing only amino acids 94-312 of p53; made in house; host or cells: E. coli
T1 sequence (P04637 94-312, change not shown): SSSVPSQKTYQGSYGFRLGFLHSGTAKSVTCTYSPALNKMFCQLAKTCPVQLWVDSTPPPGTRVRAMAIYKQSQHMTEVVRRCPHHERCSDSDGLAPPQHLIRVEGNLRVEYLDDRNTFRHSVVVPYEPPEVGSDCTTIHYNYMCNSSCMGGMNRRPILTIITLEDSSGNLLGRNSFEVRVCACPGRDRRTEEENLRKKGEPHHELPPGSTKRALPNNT
Format: biochemical
Outline: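 Homogeneous time-resolved fluorescence with E. coli-derived p53 Y220C and biotinylated consensus DNA. Room-temperature incubations of 15 and 20 min precede reading. SC150 denotes the compound concentration required for 50% increased DNA binding.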

Row | Structure (SMILES) | SC150 (concentration of the compound required to increase the DNA binding activity by 50%)
1 | CNC(=O)c1ccc(NCC#Cc2cc3c(N[C@H]4CC[C@H](N5CC6(CCCOC6)C5)CC4)cccc3n2CC(F)(F)F)c(OC)c1 [Compound 318A, 3-methoxy-N-methyl-4-{[3-(4-{[(1R,4R)-4-{6-oxa-2-azaspiro[3.5]nonan-2-yl}cyclohexyl]amino}-1-(2,2,2-trifluoroethyl)-1H-indol-2-yl)prop-2-yn-1-yl]amino} benzamide] | + (+ = 0 μM ≤ SC150 < 0.05 μM)
2 | COc1cc(S(C)(=O)=O)ccc1NCC#Cc1cc2c(N(C)C)cccc2n1CC(F)(F)F [Compound 1A, 2-{3-[(4-methanesulfonyl-2-methoxyphenyl)amino]prop-1-yn-1-yl}-N,N-dimethyl-1-(2,2,2-trifluoroethyl)-1H-indol-4-amine] | +++ (+++ = 0.1 μM ≤ SC150 < 0.2 μM)
3 | COc1cc(S(=O)(=O)N(CCO)CCO)ccc1NCC#Cc1cc2c(N[C@H]3CC[C@@H](N(C)C)CC3)cccc2n1CC(F)(F)F [Compound 69A, N,N-bis(2-hydroxyethyl)-3-methoxy-4-{[3-(4-{[(1S,4S)-4-(dimethyl-amino)cyclohexyl]amino}-1-(2,2,2-trifluoroethyl)-1H-indol-2-yl)prop-2-yn-1-yl]amino}benzene-1-sulfonamide] | + (+ = 0 μM ≤ SC150 < 0.05 μM)
4 | COc1cc(C(=O)NC2CCN(C)CC2)ccc1NCC#Cc1cc2c(NC3CCN(C)CC3)cccc2n1CC(F)(F)F [Compound 498A] | + (+ = 0 μM ≤ SC150 < 0.05 μM)
5 | COc1cc(C(N)=O)ccc1NCC#Cc1cc2c(N[C@H]3CC[C@H](N4CCOCC4)CC3)cccc2n1CC(F)(F)F [Compound 170A, 3-methoxy-4-{[3-(4-{[(1R,4R)-4-(morpholin-4-yl)cyclohexyl]amino}-1-(2,2,2-trifluoroethyl)-1H-indol-2-yl)prop-2-yn-1-yl]amino}benzamide] | + (+ = 0 μM ≤ SC150 < 0.05 μM)
6 | COc1cc(S(N)(=O)=O)ccc1NCC#Cc1cc2c(N[C@H]3CC[C@H](N4CCC(OC)CC4)CC3)cccc2n1CC(F)(F)F [Compound 354A, 3-methoxy-4-{[3-(4-{[(1R,4R)-4-(4-methoxypiperidin-1-yl)cyclohexyl]amino}-1-(2,2,2-trifluoroethyl)-1H-indol-2-yl)prop-2-yn-1-yl]amino}benzene-1-sulfonamide] | + (+ = 0 μM ≤ SC150 < 0.05 μM)
7 | CNC(=O)c1ccc(NCC#Cc2cc3c(NC4CCC(N5CC6(COC6)C5)CC4)cccc3n2CC(F)(F)F)c(OCCC#N)c1 [Compound 255A, 3-(2-cyanoethoxy)-N-methyl-4-{[3-(4-{[(1R,4R)-4-{2-oxa-6-azaspiro[3.3]heptan-6-yl}cyclohexyl]amino}-1-(2,2,2-trifluoroethyl)-1H-indol-2-yl)prop-2-yn-1-yl]amino}benzamide] | + (+ = 0 μM ≤ SC150 < 0.05 μM)
8 | CNc1cc(S(C)(=O)=O)ccc1OCC#Cc1cc2c(NC3CCC(N4CC5(COC5)C4)CC3)cccc2n1CC(F)(F)F [Compound 245A, 2-{3-[4-methanesulfonyl-2-(methylamino)phenoxy]prop-1-yn-1-yl}-N-[(1R,4R)-4-{2-oxa-6-azaspiro[3.3]heptan-6-yl}cyclohexyl]-1-(2,2,2-trifluoroethyl)-1H-indol-4-amine] | + (+ = 0 μM ≤ SC150 < 0.05 μM)
9 | CCS(=O)(=O)c1ccc(NCC#Cc2cc3c(N[C@H]4CC[C@H](N5CC6(COC6)C5)CC4)cccc3n2CC(F)(F)F)c(OC)c1 [Compound 269A, N-((1R,4R)-4-(2-oxa-6-azaspiro[3.3]heptan-6-yl)cyclohexyl)-2-(3-((4-(ethylsulfonyl)-2-methoxyphenyl)amino)prop-1-yn-1-yl)-1-(2,2,2-trifluoroethyl)-1H-indol-4-amine] | + (+ = 0 μM ≤ SC150 < 0.05 μM)

Second part, the compound after the results:

Row | SC150 (concentration of the compound required to increase the DNA binding activity by 50%) | Structure (SMILES)
10 | + (+ = 0 μM ≤ SC150 < 0.05 μM) | COc1cc(C(=O)O)ccc1NCC#Cc1cc2c(N[C@H]3CCN(C(C)C)C[C@H]3F)cccc2n1CC(F)(F)F (racemic) [Compound 796A, 4-((3-(4-(((3R,4S)-3-fluoro-1-isopropylpiperidin-4-yl)amino)-1-(2,2,2-trifluoroethyl)-1H-indol-2-yl)prop-2-yn-1-yl)amino)-3-methoxybenzoic acid]
11 | + (+ = 0 μM ≤ SC150 < 0.05 μM) | COc1cc(S(=O)(=O)Nc2ccon2)ccc1NCC#Cc1cc2c(NC3CCN(CC(O)CO)CC3)cccc2n1CC(F)(F)F (stereo not shown) [Compound 547A, 4-{[3-(4-{[1-(2,3-dihydroxypropyl)piperidin-4-yl]amino}-1-(2,2,2-trifluoroethyl)-1H-indol-2-yl)prop-2-yn-1-yl]amino}-3-methoxy-N-(1,2-oxazol-3-yl)benzene-1-sulfonamide]
12 | + (+ = 0 μM ≤ SC150 < 0.05 μM) | COc1cc(S(=O)(=O)Nc2ccon2)ccc1NCC#Cc1cc2c(NC3CCOCC3)cccc2n1CC(F)(F)F [Compound 992A, 3-methoxy-4-[(3-{4-[(oxan-4-yl)amino]-1-(2,2,2-trifluoroethyl)-1H-indol-2-yl}prop-2-yn-1-yl)amino]-N-(1,2-oxazol-3-yl)benzene-1-sulfonamide]
13 | + (+ = 0 μM ≤ SC150 < 0.05 μM) | COCC(CN1CCC(Nc2cccc3c2cc(C#CCNc2ccc(S(N)(=O)=O)cc2OC)n3CC(F)(F)F)CC1)OC (stereo not shown) [Compound 581A, 4-{[3-(4-{[1-(2,3-dimethoxypropyl)piperidin-4-yl]amino}-1-(2,2,2-trifluoroethyl)-1H-indol-2-yl)prop-2-yn-1-yl]amino}-3-methoxybenzene-1-sulfonamide]
14 | + (+ = 0 μM ≤ SC150 < 0.05 μM) | COCC(O)CN1CCC(Nc2cccc3c2cc(C#CCNc2ccc(S(C)(=O)=O)cc2OCCF)n3CC(F)(F)F)CC1 (stereo not shown) [Compound 625A, 1-(4-{[2-(3-{[2-(2-fluoroethoxy)-4-methanesulfonylphenyl]amino}prop-1-yn-1-yl)-1-(2,2,2-trifluoroethyl)-1H-indol-4-yl]amino}piperidin-1-yl)-3-methoxypropan-2-ol]
15 | + (+ = 0 μM ≤ SC150 < 0.05 μM) | CS(=O)(=O)c1ccc(NCC#Cc2cc3c(NC4CCS(=O)(=O)CC4)cccc3n2CC(F)(F)F)c(OC(F)(F)F)c1 [Compound 1035A, 4-{[2-(3-{[4-methanesulfonyl-2-(trifluoromethoxy)phenyl]amino}prop-1-yn-1-yl)-1-(2,2,2-trifluoroethyl)-1H-indol-4-yl]amino}-1λ^6-thiane-1,1-dione]
16 | + (+ = 0 μM ≤ SC150 < 0.05 μM) | COc1cc(C(N)=O)ccc1NCC#Cc1cc2c(N[C@H]3CCN(C)C[C@H]3F)cccc2n1CC(F)(F)F [Compound 801A, 4-{[3-(4-{[(3R,4S)-3-fluoro-1-methylpiperidin-4-yl]amino}-1-(2,2,2-trifluoroethyl)-1H-indol-2-yl)prop-2-yn-1-yl]amino}-3-methoxybenzamide]
17 | + (+ = 0 μM ≤ SC150 < 0.05 μM) | CNC(=O)c1ccc(NCC#Cc2cc3c(NC4CCN(C[C@H](O)COC)CC4)cccc3n2CC(F)(F)F)c(OC)c1 [Compound 648A, 4-({3-[4-({1-[(2S)-2-hydroxy-3-methoxypropyl]piperidin-4-yl}amino)-1-(2,2,2-trifluoroethyl)-1H-indol-2-yl]prop-2-yn-1-yl}amino)-3-methoxy-N-methylbenzamide]
18 | + (+ = 0 μM ≤ SC150 < 0.05 μM) | COc1cc(S(N)(=O)=O)ccc1NCC#Cc1cc2c(NC3CCN(C(C)C)CC3)cccc2n1CC(F)(F)F [Compound 543A, 3-methoxy-4-{[3-(4-{[1-(propan-2-yl)piperidin-4-yl]amino}-1-(2,2,2-trifluoroethyl)-1H-indol-2-yl)prop-2-yn-1-yl]amino}benzene-1-sulfonamide]
19 | + (+ = 0 μM ≤ SC150 < 0.05 μM) | COc1cc(S(=O)(=O)N2CC3(COC3)C2)ccc1NCC#Cc1cc2c(NC3CCS(=O)(=O)CC3)cccc2n1CC(F)(F)F [Compound 1047A, 4-[(2-{3-[(2-methoxy-4-{2-oxa-6-azaspiro[3.3]heptane-6-sulfonyl}phenyl)amino]prop-1-yn-1-yl}-1-(2,2,2-trifluoroethyl)-1H-indol-4-yl)amino]-1λ^6-thiane-1,1-dione]
20 | + (+ = 0 μM ≤ SC150 < 0.05 μM) | CCNC(=O)c1ccc(NCC#Cc2cc3c(N[C@@H]4CCN(C)C[C@@H]4F)cccc3n2CC(F)(F)F)c(OC)c1 [Compound 940A, N-ethyl-4-{[3-(4-{[(3S,4R)-3-fluoro-1-methylpiperidin-4-yl]amino}-1-(2,2,2-trifluoroethyl)-1H-indol-2-yl)prop-2-yn-1-yl]amino}-3-methoxybenzamide]
21 | + (+ = 0 μM ≤ SC150 < 0.05 μM) | CCC(=O)OCC(CN1CCC(Nc2cccc3c2cc(C#CCNc2ccc(S(N)(=O)=O)cc2OC)n3CC(F)(F)F)CC1)OC(=O)CC (stereo not shown) [Compound 587A, 1-{4-[(2-{3-[(2-methoxy-4-sulfamoylphenyl)amino]prop-1-yn-1-yl}-1-(2,2,2-trifluoroethyl)-1H-indol-4-yl)amino]piperidin-1-yl}-3-(propanoyloxy)propan-2-yl propanoate]
22 | + (+ = 0 μM ≤ SC150 < 0.05 μM) | COc1cc(C(=O)NCCS(C)(=O)=O)ccc1NCC#Cc1cc2c(N[C@@H]3CCN(C)C[C@@H]3F)cccc2n1CC(F)(F)F [Compound 969A, 4-{[3-(4-{[(3S,4R)-3-fluoro-1-methylpiperidin-4-yl]amino}-1-(2,2,2-trifluoroethyl)-1H-indol-2-yl)prop-2-yn-1-yl]amino}-N-(2-methanesulfonylethyl)-3-methoxybenzamide]

— patent US12428406B2 (PMV Pharmaceuticals, Inc., priority 2019, dated 2025)
